Values of other authors, collected in patent publication US11737994B2, “Topical compositions for pain relief, manufacture and use” (priority 2014, dated 2023).

Conditions: in words

For `CCCCCCCCC(=O)NCc1ccc(O)c(OC)c1` [Nonivamide, vanillylamide of n-nonanoic acid], which Heat stability is on record?
Its Heat stability is “more heat-stable than capsaicin”.
